In this assay the target is mu opioid receptor (MOR) (Rattus norvegicus, UniProt P33535). As to the kind of experiment: Stimulation of [35S]GTPγS binding, C6-MOR membranes. Format: biochemical. The conditions noted are these: 10 μM peptide compared to 10 μM DAMGO. A general note: GTPγS resists hydrolysis and so accumulates on activated G proteins.
mu opioid receptor (MOR), sequence (P33535 whole entry): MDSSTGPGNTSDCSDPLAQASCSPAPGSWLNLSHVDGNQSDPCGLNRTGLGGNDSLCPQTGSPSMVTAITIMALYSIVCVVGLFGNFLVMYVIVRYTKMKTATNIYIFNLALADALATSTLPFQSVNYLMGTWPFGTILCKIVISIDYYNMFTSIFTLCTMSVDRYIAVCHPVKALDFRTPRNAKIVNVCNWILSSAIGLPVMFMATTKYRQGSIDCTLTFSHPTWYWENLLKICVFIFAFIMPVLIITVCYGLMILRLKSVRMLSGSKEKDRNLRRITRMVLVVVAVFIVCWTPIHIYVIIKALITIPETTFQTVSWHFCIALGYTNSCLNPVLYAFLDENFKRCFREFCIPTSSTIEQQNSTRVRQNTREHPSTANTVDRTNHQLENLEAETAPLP

As to `NC(=O)[C@H](Cc1ccccc1)NC(=O)[C@H](Cc1ccccc1)NC(=O)[C@@H]1CCCN1C(=O)[C@@H](N)Cc1ccc(O)cc1` [endomorphin-2], the “MOR % max. stimulation of [35S]GTPγS binding” value is on record as 49 ± 7%.

The values above are taken from article PMC3241856 (ACS chemical biology, 2011).
